Laboratory results reported in patent publication US20200281989A1, “METHOD OF PREPARING A COMPOSITION FOR TREATING CANCER” (priority 2019, published 2020).

Assays:
[1] = test system: human pancreatic cancer cells (Panc-1 cells); assay: Cell growth inhibition, Panc-1 pancreatic cancer cells; type: cell-based; conditions: F6 5-50 μg/ml for 72 hours, FIG. 18A
[2] = test system: human leukemia K562 cells; assay: WST-1 cell proliferation assay, K562 leukemia cells; type: cell-based; conditions: for anti-proliferative effect on leukemic K562 cells: WST-1, FIGS. 3B, 4A
Description: The graphs show results of different concentrations of the compounds using the WST-1 spectrophotometric detection assay. WST is a colorimetric assay to assess cell proliferation under different treatment conditions. This assay is based on the cleavage of a tetrazolium salt (2-(4-Iodophenyl)-3-(4-nitrophenyl)-5-phenyl-2h-tetrazolium chloride) to form formazan (a colored compound) by mitochondrial dehydrogenases in viable cells. As a result, the assay measures the net metabolic activity of the cells. Human leukemia K562 cell line was purchased from ATCC (Manassas, Va., USA) and plated a day before the experiment in normal growth medium. The next day, the medium was replaced with serum free medium (Gibco #11835-030) to starve the cells for 4 h. Cells were deprived of serum for 4 h before treatment with the lipids to eliminate binding of the compounds to serum proteins. After starvation, K562 cells were then centrifuged. The medium was replaced with fresh IMDM media containing 1% (v/v) FBS and 100 units of PS. Cells (1×104 in 100 L) were seeded into each well with conditioned medium for overnight (20 h) in a 96-well plate to which the test compounds (−ve control ethanol, Ft-3, F-6 and S5) were added at the concentrations indicated. A volume of 10 uL WST-1, cell proliferation assay reagent (Roche Diagnostics, Indianapolis, Ind., USA), was added to each well and incubated for 4 h, and then the wells were read on a plate reader at 450 nm with a reference reading at 650 nm. Reference reading at 650 nm was used for subtracting background readouts.
Another embodiment of the anti-cancer oral composition was prepared by combining lipid Fraction 3 of the neutral lipid fraction and ethanol in a ratio of 20 μg/μL to provide a mixture. The mixture was prepared by dissolving Fraction 3 in pure ethanol then diluting it to the desired concentration with culture medium. Cells (1×10^4) were starved overnight in serum-free medium, then the medium was replaced prior to incubation with IMDM/1% FBS/pen-strep. […]

breast MCF-7 cells = assay: WST-1 cell proliferation assay, MCF-7 breast cancer cells; type: cell-based, human; conditions: WST-1, FIG. 4B
Description: FIG. 4B is a graph showing the effect of fraction 3 of the neutral lipids, furan (F6), and a steroid found in fraction 3 of the neutral lipids, (S5) and the two isolated components from fraction 3 of the neutral lipids on breast MCF-7 cells using the WST-1 spectrophotometric detection assay. WST was performed to assess cell proliferation under different treatment conditions. The assay measured the net metabolic activity of the cells. Human breast MCF-7 cell line was purchased from ATCC (Manassas, Va., USA). 1×10^4 cells/well/100 L) and were plated a day before experiment in normal growth medium. The next day, the medium was replaced with serum free medium (Gibco #11835-030) to starve the cells for 4 h. Cells were deprived of serum for 4 h before treatment with the lipids to eliminate binding of the compounds to serum proteins. After starvation, the medium was replaced with fresh IMDM media containing 1% (v/v) FBS and 100 units of PS. Cells (1×104 in 100 L) were seeded into each well with conditioned medium overnight (20 h) in a 96-well plate to which the test compounds (−ve control ethanol, Fr-3 of the neutral lipids, F6 and S5) were added at the concentrations indicated. […] Then, the wells were read on a plate reader at 450 nm with a reference reading at 650 nm. Reference reading at 650 nm was used for subtracting background readouts.

[3] = test system: human breast cancer cells MDA MB-231; assay: WST-1 cell proliferation assay, MDA MB-231 breast cancer cells; type: cell-based; conditions: WST-1, FIG. 4C
Description: FIG. 4C is a graph showing the effect of fraction 3 of the neutral lipids, furan (F6), and a steroid (S5) on human breast cancer cells MDA MB-231 using the WST-1 spectrophotometric detection assay. The assay measured the net metabolic activity of the cells. Human breast MDA MB-231 cell line was purchased from ATCC (Manassas, Va., USA). MCF-7 and 1_x 10^4 cells/well/100 uL) and were plated a day before experiment in normal growth medium. The next day, medium was replaced with serum free medium (Gibco #11835-030) to starve the cells for 4 h. Cells were deprived of serum for 4 h before treatment with the lipids to eliminate binding of the compounds to serum proteins. After starvation, Cells (1_x 104 in 100 L) were seeded into each well with conditioned medium overnight (20 h) in a 96-well plate to which the test compounds (−ve control ethanol, Ft-3, F-6 and S5) were added at the concentrations indicated. A volume of 10 uL WST-1, cell proliferation assay reagent (Roche Diagnostics, Indianapolis, Ind., USA), was added to each well and incubated for 4 h. Then, the wells were read on a plate reader at 450 nm with a reference reading at 650 nm. Reference reading at 650 nm was used for subtracting background readouts.

Capan2 cells = assay: Proliferation of Capan2 pancreatic cancer cells; type: cell-based, human; conditions: F6 5-50 μg/ml for 72 hours, FIG. 18A
BxPC3 cells = assay: Proliferation of BxPC3 pancreatic cancer cells; type: cell-based, human; conditions: F6 5-50 μg/ml for 72 hours, FIG. 18A
Panc-1 cells [4] = assay: Invasion chamber (transwell) assay, Panc-1 cells; type: cell-based, human; conditions: concentration dependent, 6 hours incubation, FIGS. 19A-19B
Description: (§1) Another embodiment of the anti-cancer oral composition was prepared by combining lipid Fraction 1 with ethanol to provide a first mixture in a ratio of 5 μg/mL, a second mixture in a ratio of 10 μg/mL, and a third mixture in a ratio of 25 μg/mL. The mixtures and a control (0.1% ethanol) were tested for inhibition of metastatic potential of cancer Hep3B cell line (FIGS. 13A-13E) and cancer Panc-1 cell line (FIGS. 13F-131).
(§2) An aliquot of 0.5 ml Hep3B or Panc-1 cell suspension in serum-free medium with BSA (1 mg/ml) containing 6×10^4 cells/ml was mixed with F6 and then applied to each invasion chamber. An aliquot of 0.5 ml medium with 10% serum was loaded into the bottom of the well. After incubation for 6 hours, cells that invaded to the bottom surface of the transwell were fixed with 70% ethanol, stained with Diff Quik solution (Sysmex), and counted in five selected fields.

Hep3B cells = assay: Invasion chamber (transwell) assay / metastatic potential, Hep3B cells; type: cell-based, human; conditions: FIGS. 17A-17E
Description: as §1, §2

Panc-1 cells [5] = assay: Apoptosis induction (cell cycle, caspase-3), pancreatic cancer cells; type: cell-based, human; conditions: FIGS. 18A-18F

| Structure (SMILES) | inhibition of proliferation of Panc-1 cells [1] | anti-proliferative effect on leukemic K562 cells [2] | anti-proliferative effect on breast MCF-7 cells (breast MCF-7 cells) | anti-proliferative effect on breast MDA MB-231 cells [3] | inhibition of proliferation of Capan2 cells (Capan2 cells) | inhibition of proliferation of BxPC3 cells (BxPC3 cells) | invasion of Panc-1 cells (Panc-1 cells [4]) | Hep3B cell metastasis (markers migration and invasion) (Hep3B cells) | mechanism of regulation of pancreatic cancer cell growth (Panc-1 cells [5]) | effect of combination of Fraction 3 and Gleevec on K562 cell survival ([2]; Gleevec 2 uM with Fraction 3, WST-1, FIG. 3B) |
| --- | --- | --- | --- | --- | --- | --- | --- | --- | --- | --- |
| CCCCCc1oc(CCCCCCCCCCC(=O)O)c(C)c1C [Fraction F6, 12,15-epoxy-13,14-dimethyleicosa-12,14-dienoic acid] | potently inhibited proliferation | anti-proliferative effects | anti-proliferative effects | anti-proliferative effects | potently inhibited proliferation | potently inhibited proliferation | inhibited invasion | inhibit cancer Hep3B cell metastasis | induction of apoptosis | – |
| CC(C)CCC[C@@H](C)[C@H]1CC[C@H]2[C@@H]3CC=C4C=CCC[C@]4(C)[C@H]3CC[C@]12C [Fraction S5, cholesta-3,5-diene] | – | anti-proliferative effects | anti-proliferative effects | anti-proliferative effects | – | – | – | inhibit cancer Hep3B cell metastasis | – | – |
| Cc1ccc(NC(=O)c2ccc(CN3CCN(C)CC3)cc2)cc1Nc1nccc(-c2cccnc2)n1 [Gleevec, reference compound] | – | – | – | – | – | – | – | – | – | potentiated the anti-proliferative effect |
